These results are taken from BindingDB's records for doi:10.1021/jm030905y (Vrije Universiteit, 2003).

Usually Ki stands for the equilibrium dissociation constant of an inhibitor or competing ligand from its target.

The assay has as its target Histamine H4 receptor (Homo sapiens, UniProt Q9H3N8). Briefly: Inhibitory activity measured by [3H]- N alpha- methyl-histamine binding to membranes of SK-N-MC cells expressing the human Histamine H4 receptor.

Histamine H4 receptor, sequence (Q9H3N8 whole entry): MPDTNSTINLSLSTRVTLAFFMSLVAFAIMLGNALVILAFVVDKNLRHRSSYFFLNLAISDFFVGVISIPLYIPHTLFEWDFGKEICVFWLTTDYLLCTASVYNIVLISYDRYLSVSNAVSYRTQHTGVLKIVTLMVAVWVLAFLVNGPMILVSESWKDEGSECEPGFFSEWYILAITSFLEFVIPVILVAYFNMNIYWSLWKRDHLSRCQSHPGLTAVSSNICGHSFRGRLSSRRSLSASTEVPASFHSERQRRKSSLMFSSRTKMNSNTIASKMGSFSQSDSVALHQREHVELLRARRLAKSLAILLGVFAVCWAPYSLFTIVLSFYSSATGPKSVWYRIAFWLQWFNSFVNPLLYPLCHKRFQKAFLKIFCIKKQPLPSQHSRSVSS

In turn, `C[C@@H](N)Cc1c[nH]cn1` [CHEBI:73337] yielded a Ki of 239 nM.
Consider `NCCCc1c[nH]cn1` [Homohistamine], for which the affinity corresponds to a Ki of 34.7 nM.
